Experimental data published in patent publication US7037660B2, “Methods for detecting and quantifying binding and inhibition of binding of species to nucleic acids” (Message Pharmaceuticals, priority 2001, dated 2006).

Key:
RRE1 = assay: Displacement of Mn2+ from RNA by neomycin b (probe 31P relaxation); format: binding; settings: each condition studied
Procedure: (§1) Mn^2+ binding by RNA constructs, and its displacement by either K^+ or Mg^2+. Samples containing MeOPH (5 mM) and PIPES buffer (5 mM, pH=7.2), and 3 μM Mn^2+ were titrated with each RNA. The ^31P transverse relaxation rates (R2=1/T2) of the probe in the resulting solutions were measured. Plots of R2 versus [RNA] were prepared. The effects of [K^+] and [Mg^2+] on Mn^2+ binding were determined by titrating similar solutions containing buffer, MeOPH, Mn^2+ and one of the RNAs (10 to 30 μM) with solutions of either KCl or MgCl2, and monitoring the relaxation rate of the probe as a function of cation concentration. The effects of [K^+] were studied over the range of 12.5 to 150 mM ([…] K^+ is reportedly 140 mM). Mn^2+ displacements from each of the hairpins by Mg^2+, neomycin b, and RSG1.2 were studied in the absence of added KCl and with sufficient KCl added to bring the total [K^+] to 100 mM.
(§2) Displacement of Mn^2+ from RNA by RSG1.2, or neomycin b: Binding of RSG1.2 and neomycin b to each of the hairpins was studied at [RNA] between 20 and 30 μM, and again at [RNA]˜3 μM. The higher concentration studies were performed in a manner identical to that described above for the Mg^2+ exchange reactions. For the low concentration studies, HPO3^2− (20 mM) was used as the probe ion. Reactions were run in 10 mM PIPES buffer, with 45 mM KCl and [Mn^2+] between 50 and 150 nM. […]

RRE2 = assay: as above; format: binding; settings: each condition studied
Procedure: as §1, §2

another RRE1 model = settings: cited from earlier work
[1] = test system: 27-nt A-site RNA construct; assay: Displacement of Mn2+ from RNA by neomycin (probe 31P relaxation); format: binding
Procedure: The ^31P T2 was measured for each sample by varying the length (number of pulses) of the CPMG portion of the pulse sequence in FIG. 2 and determining the effect of this change on the intensity (i) of the signals. […] The dl delay was typically 5 to 20 seconds, and delays in the inept and reverse inept parts of the sequence were set to a value equal to 1/4J, where J is the ^1H—^31P coupling constant. Delays between pulses in the CPMG train varied from 50 to 500 microseconds.
The data shown in FIG. 9 were most consistent with a model where three neomycin molecules were bound to each RNA molecule with subsequent release of Mn^2+.
as §1
as §2, with “nM. The pH of the samples was maintained at 7.8 in these experiments.” for “nM.”

[2] = Proton exchange pKA of probe; format: physicochemical; settings: dynamic proton exchange of the probe
Procedure: Displacement of Mn^2+ from RNA by RSG1.2, or neomycin b: Binding of RSG1.2 and neomycin b to each of the hairpins was studied at [RNA] between 20 and 30 μM, and again at [RNA]˜3 μM. The higher concentration studies were performed in a manner identical to that described above for the Mg^2+ exchange reactions. For the low concentration studies, HPO3^2− (20 mM) was used as the probe ion. Reactions were run in 10 mM PIPES buffer, with 45 mM KCl and [Mn^2+] between 50 and 150 nM. The pH of the samples was maintained at 7.8 in these experiments. Studies utilizing HPO3^2− are impractical at lower pH where the probe undergoes dynamic proton exchange (pKA=6.0) leading to significant shortening of the diamagnetic ^31P T2.

| equivalents of neomycin bound (RRE1) | equivalents of neomycin bound (RRE2) | neomycin molecules bound to each RNA molecule ([1]; RNA 27 μM, Mn^2+ 16 μM (Example 11)) | equivalents of neomycin bound ([1]; [RNA]=2.7 μM, 100 mM K^+) | equivalents of neomycin bound ([1]; [RNA]=27 μM (Example 16, data not shown)) | SMILES | equivalents of neomycin b bound (another RRE1 model) | pKA [2] |
| --- | --- | --- | --- | --- | --- | --- | --- |
| multiple equivalents | multiple equivalents | three | single equivalent | 3 | NC[C@@H]1O[C@H](O[C@H]2[C@@H](O)[C@H](O[C@@H]3[C@@H](O)[C@H](N)C[C@H](N)[C@H]3O[C@H]3O[C@H](CN)[C@@H](O)[C@H](O)[C@H]3N)O[C@@H]2CO)[C@H](N)[C@@H](O)[C@@H]1O [neomycin, neomycin b] | three |  |
|  |  |  |  |  | O=[PH](O)O [HPO3^2−, phosphite dianion] |  | 6.0 |
